Results as given in the supplement of paper PMC10307832.

Tests used:
Assay in all cases: relative viability (nuclei count vs DMSO), 5 days (fraction); higher = more cells survive
[1] = compound: CC1=NC=CC(=C1)C2=CC=C(C=C2)CC(=O)NC3=CC=C(C=C3)C4=CN=CC=C4 [Wnt-C59] + C[C@]1(O)C[C@@H](c2nc(-c3ccc4ccc(-c5ccccc5)nc4c3)c3c(N)nccn32)C1 [Linsitinib] (partner 1 µM)
How it was run: (§1)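 Lung cancer cell lines in 1536-well plates got either a single drug or a fixed anchor-drug dose together with five library-drug doses (not always all listed) in √10 steps, by pin tool, on the day after seeding. Nuclei were counted after 5 days, and relative viability is the treated-to-vehicle ratio of nuclei counts. Values are medians of duplicate plates.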

[2] = compound: CC1=NC=CC(=C1)C2=CC=C(C=C2)CC(=O)NC3=CC=C(C=C3)C4=CN=CC=C4 [Wnt-C59] + N=C(N)NC(=N)NCCc1ccccc1 [Phenformin] (partner 250 µM)
How it was run: as §1

[3] = compound: CS(=O)(=O)CCNCc1ccc(-c2ccc3ncnc(Nc4ccc(OCc5cccc(F)c5)c(Cl)c4)c3c2)o1 [Lapatinib] + CC(=O)c1c(C)c2cnc(Nc3ccc(N4CCNCC4)cn3)nc2n(C2CCCC2)c1=O [Palbociclib] (partner 0.5 µM)
How it was run: as §1

[4] = compound: CS(=O)(=O)CCNCc1ccc(-c2ccc3ncnc(Nc4ccc(OCc5cccc(F)c5)c(Cl)c4)c3c2)o1 [Lapatinib] + COc1cccc2cc(-c3nc([C@H]4CC[C@H](C(=O)O)CC4)n4ncnc(N)c34)[nH]c12 [OSI-027] (partner 0.5 µM)
How it was run: as §1

| Cell Line | relative viability ([1]; first compound 0.001 µM) | relative viability ([1]; first compound 0.01 µM) | relative viability ([1]; first compound 0.03162 µM) | relative viability ([1]; first compound 0.1 µM) | relative viability ([2]; first compound 0.001 µM) | relative viability ([2]; first compound 0.01 µM) | relative viability ([2]; first compound 0.03162 µM) | relative viability ([2]; first compound 0.1 µM) | relative viability ([3]; first compound 0.02 µM) | relative viability ([3]; first compound 0.06325 µM) | relative viability ([3]; first compound 0.2 µM) | relative viability ([3]; first compound 0.6325 µM) | relative viability ([3]; first compound 2 µM) | relative viability ([4]; first compound 0.06325 µM) | relative viability ([4]; first compound 0.2 µM) | relative viability ([4]; first compound 0.6325 µM) | relative viability ([4]; first compound 2 µM) | relative viability ([4]; first compound 0.02 µM) |
| --- | --- | --- | --- | --- | --- | --- | --- | --- | --- | --- | --- | --- | --- | --- | --- | --- | --- | --- |
| A-427 | 1.12 | 1.05 | 1.14 | 1.06 | 0.334 | 0.338 | 0.407 | 0.384 | 0.544 | 0.518 | 0.526 | 0.524 | 0.483 | 0.359 | 0.516 | 0.541 | 0.417 | – |
| H3255 | 1.01 | 0.962 | 1.02 | 0.866 | 0.372 | 0.321 | 0.356 | 0.332 | 0.334 | 0.291 | 0.308 | 0.291 | 0.283 | 0.524 | 0.505 | 0.431 | 0.236 | 0.577 |
| NCI-H23 | 0.719 | 0.518 | 0.579 | 0.483 | 0.842 | 0.663 | 0.907 | 0.749 | – | – | 0.488 | 0.512 | 0.457 | – | 0.51 | 0.639 | 0.504 | – |
| NCI-H2087 | 1.04 | 0.956 | 0.958 | 0.858 | 0.504 | 0.416 | 0.547 | 0.465 | 0.238 | 0.161 | 0.177 | 0.251 | 0.246 | 0.259 | 0.547 | 0.527 | 0.489 | – |
| SK-LU-1 | 1.01 | 1.12 | 1.07 | 1.03 | 0.476 | 0.49 | 0.506 | 0.503 | 0.36 | 0.394 | 0.455 | 0.44 | 0.392 | 0.219 | 0.286 | 0.353 | 0.324 | 0.292 |
| NCI-H2347 | 0.987 | 0.889 | 0.98 | 0.987 | 0.446 | 0.369 | 0.249 | 0.388 | 0.385 | 0.45 | 0.456 | 0.378 | 0.386 | 0.266 | 0.462 | 0.44 | 0.366 | – |
| ABC-1 | 0.909 | 0.759 | 0.774 | 0.702 | 0.237 | 0.248 | 0.257 | 0.262 | 0.71 | 0.487 | – | 0.533 | 0.787 | 0.321 | 0.706 | 0.702 | 0.477 | 0.532 |
| NCI-H661 | 0.581 | 0.621 | 0.548 | 0.723 | 0.292 | 0.311 | 0.27 | 0.288 | 0.374 | 0.382 | 0.325 | 0.356 | 0.3 | 0.322 | 0.545 | 0.495 | 0.424 | 0.654 |
| LU99A | 0.554 | 0.508 | 0.594 | 0.495 | 0.904 | 0.845 | 0.879 | 0.876 | 0.449 | 0.299 | 0.385 | 0.424 | 0.39 | 0.244 | 0.297 | 0.293 | 0.284 | 0.283 |
| SW 1573 | 0.696 | 0.806 | 0.874 | 0.862 | 0.343 | 0.41 | 0.431 | 0.365 | – | 0.384 | 0.411 | 0.372 | 0.359 | 0.379 | 0.612 | 0.735 | 0.635 | 0.626 |
| NCI-H1734 | 0.858 | 0.779 | 0.916 | 0.911 | 0.389 | 0.356 | 0.478 | 0.354 | – | 0.271 | 0.31 | 0.332 | 0.303 | 0.375 | 0.579 | 0.721 | 0.507 | 0.615 |
| NCI-H2126 | 0.755 | 0.7 | 0.723 | 0.701 | 0.542 | 0.507 | 0.53 | 0.541 | 0.38 | 0.349 | 0.346 | 0.348 | 0.319 | – | 0.644 | 0.688 | 0.557 | – |
| NCI-H838 | 1.07 | 0.997 | 1.01 | 1.04 | 0.573 | 0.582 | 0.588 | 0.624 | 0.225 | 0.193 | 0.201 | 0.238 | 0.178 | 0.256 | 0.369 | 0.383 | 0.332 | 0.401 |
| HCC-78 | 0.507 | 0.498 | 0.576 | 0.584 | 0.548 | 0.685 | 0.701 | 0.72 | – | 0.453 | 0.49 | 0.467 | 0.506 | 0.324 | 0.315 | 0.381 | 0.344 | – |
| NCI-H2228 | 0.606 | 0.95 | 0.77 | 0.878 | 0.325 | 0.385 | 0.294 | 0.415 | 0.395 | 0.606 | 0.744 | 0.739 | 0.54 | 0.36 | 0.482 | 0.568 | 0.478 | 0.395 |
| NCI-H460 | 0.789 | 0.809 | 0.869 | 0.7 | 0.488 | 0.524 | 0.519 | 0.484 | 0.116 | 0.168 | 0.149 | 0.149 | 0.118 | 0.438 | 0.481 | 0.533 | 0.477 | 0.544 |
| NCI-H2023 | 0.736 | 0.58 | 0.648 | 0.631 | 0.406 | 0.415 | 0.419 | 0.35 | – | 0.266 | 0.324 | 0.242 | 0.264 | – | 0.337 | 0.382 | 0.177 | 0.379 |
| HOP-62 | 1.09 | 1.1 | 1.14 | 0.95 | 0.771 | 0.603 | 0.662 | 0.607 | – | 0.44 | 0.457 | 0.451 | 0.432 | 0.756 | 0.89 | 0.866 | 0.914 | 0.486 |
